Results on 1 compound are retold here after US8691799B2, “Materials and methods for treatment of cancer and identification of anti-cancer compounds” (priority 2001, dated 2014).

Entries after “also recorded” stand apart in the source; their conditions may differ. Like-named read-outs stand apart in the source and are kept apart here.

One assay concerns v-Src/NIH 3T3 tumors. The experiment in a line: Antitumor activity, v-Src-transformed NIH 3T3 tumors in nude mice. The class given is in vivo. From the text: Antitumor Activity in the Nude Mouse Tumor Xenograft Model. Nude mice and C57 BL-6 black mice (National Cancer Institute, Bethesda, Md.) were maintained in accordance with the Institutional Animal Care and Use Committee (IACUC) procedures and guidelines. v-Src- and oncogenic H-Ras-transformed NIH 3T3, A549, MDA-MB-468 and Calu-1 cells were harvested, resuspended in PBS and injected s.c. into the right and left flank (10×10^6 cells per flank) of 8 week old female nude mice as reported previously (Sun, J. et al. Cancer Res., 1999, 59:4919-4926). Similarly, murine B16-F10 Melanoma cells were injected s.c. into the right and left flank (10^6 cells per flank) of C57 black mice. […] […] The tumor volumes were determined by measuring the length (l) and the width (w) and calculating the volume (V=1w^2/2) as described previously (Sun, J. et al. Cancer Res., 1999, 59:4919-4926). Statistical significance between control and treated animals were evaluated by using Student's t-test. For the mouse survival experiments, C57 BL-6 black mice were implanted s.c. with B16-F10 cells (10^5 to 10^6 cells per flank). […] Percent surviving mice was determined by monitoring the death of mice until all mice died. Two experiments of 12 animals each (6 control and 6 treated with JSI-124) were carried out. For statistical analysis: for each of the two experiments, mice receiving JSI-124 were compared to those receiving vehicle control with respect to survival using the permutation log rank test as implemented in the statistical software package, ProcStatXact (p-values are two sided and exact).

For a further assay, the system named is B16-F10 melanoma. The experiment in a line: Mouse survival, B16-F10 melanoma in C57 black mice. To be noted: 1 mg/Kg/day for 25 days, B16-F10 s.c. The class given is in vivo. From the text:
Antitumor Activity in the Nude Mouse Tumor Xenograft Model. Nude mice and C57 BL-6 black mice (National Cancer Institute, Bethesda, Md.) were maintained in accordance with the Institutional Animal Care and Use Committee (IACUC) procedures and guidelines. v-Src- and oncogenic H-Ras-transformed NIH 3T3, A549, MDA-MB-468 and Calu-1 cells were harvested, resuspended in PBS and injected s.c. into the right and left flank (10×10^6 cells per flank) of 8 week old female nude mice as reported previously (Sun, J. et al. Cancer Res., 1999, 59:4919-4926). Similarly, murine B16-F10 Melanoma cells were injected s.c. into the right and left flank (10^6 cells per flank) of C57 black mice. When tumors reached about 150 mm^3, animals were randomized (five animals per group; two tumors per animal) and dosed i.p. with 0.2 ml once daily. Control animals received DMSO (20%) vehicle whereas treated animals were injected with JSI-124 (1 mg/kg/day) in 20% DMSO in water. The tumor volumes were determined by measuring the length (l) and the width (w) and calculating the volume (V=1w^2/2) as described previously (Sun, J. et al. Cancer Res., 1999, 59:4919-4926). Statistical significance between control and treated animals were evaluated by using Student's t-test. For the mouse survival experiments, C57 BL-6 black mice were implanted s.c. with B16-F10 cells (10^5 to 10^6 cells per flank). On day 5 after implantation the mice were randomized (6 animals per group) and treated with either vehicle or JSI-124 (1 mg/Kg/day) for 25 days. Percent surviving mice was determined by monitoring the death of mice until all mice died. Two experiments of 12 animals each (6 control and 6 treated with JSI-124) were carried out. For statistical analysis: for each of the two experiments, mice receiving JSI-124 were compared to those receiving vehicle control with respect to survival using the permutation log rank test as implemented in the statistical software package, ProcStatXact (p-values are two sided and exact).

In the next assay the test system is phosphotyrosine STAT3. The experiment in a line: Western blotting for phosphotyrosine STAT3 in cancer cell lines. The class given is cell-based, human. The procedure: Western Blotting. Treated cell samples were lysed in 30 mM Hepes, pH 7.5, 10 mM NaCl, 5 mM MgCl2, 25 mM NaF, 1 mM EGTA, 1% Triton-X-100, 10% glycerol, 2 mM sodium orthovanadate, 10 μg/ml aprotinin, 10 μg/ml soybean trypsin inhibitor, 25 μg/ml leupeptin, 2 mM PMSF, and 6.4 mg/ml p-nitrophenylphosphate. Phospho-STAT3, phospho-AKT, phospho-MEK, and phospho-p42/p44 MAPK antibodies were obtained from Cell Signaling Technologies, Cambridge, Mass. Antibodies to STAT3, JAK2, and phospho-INK were purchased from Santa Cruz Biotechnology, Santa Cruz, Calif. Phospho-JAK2 antibody came from Upstate Biotechnology, Lake Placid, N.Y. Membranes were blocked in either 5% milk in PBS, pH 7.4, containing 0.1% Tween-20 (PBS-T) or 1% BSA in TBS, pH 7.5, containing 0.1% Tween-20 (TBS-T). Phospho-specific antibodies (excepting P-MAPK and P-JNK) were incubated in 1% BSA in TBS-T while all other antibodies were diluted in 5% milk in PBS-T for either 2 hr at room temperature or overnight at 4° C. HRP-conjugated secondary antibodies (Jackson ImmunoResearch) were diluted in 5% milk in either PBS-T or TBS-T at 1:1000 dilution for one hour at room temperature. Western blots were visualized using enhanced chemiluminescence as described previously (Blaskovich, M. A. et al. Nat. Biotechnol., 2000, 18:1065-1070).
Immunoprecipitation of STAT3. A549 cells were treated for 4 hr with vehicle or JSI-124, then lysed in 150 mM Hepes, pH 7.5, 150 mM NaCl, 1 mM EDTA, 0.5% Nonidet P-40 (NP-40), 10% glycerol, 5 mM NaF, 1 mM DTT, 1 mM PMSF, 2 mM sodium orthovanadate, and 5 μg/ml leupeptin. Sample lysates were collected and cleared, then 500 μg of lysate was immunoprecipitated with 50 ng STAT3 antibody overnight at 4° C. then rocked with 25 μl Protein A/G PLUS agarose (Santa Cruz Biotechnology) for 1 hr at 4° C. Samples were washed four times with lysis buffer then boiled in 2×SDS-PAGE sample buffer and run on 10% SDS-PAGE gel. Protein was transferred to nitrocellulose and then blotted as above for both phospho-specific STAT3 and STAT3.

Turning to `CC(C)(O)/C=C/C(=O)[C@](C)(O)[C@H]1[C@H](O)C[C@@]2(C)[C@@H]3CC=C4[C@@H](C=C(O)C(=O)C4(C)C)[C@]3(C)C(=O)C[C@]12C` [JSI-124, cucurbitacin I], in the assay with v-Src/NIH 3T3 tumors (1 mg/Kg/day intraperitoneally), the “inhibition of growth of v-src transformed NIH 3T3 tumors (in words)” value is “inhibits tumor growth”. Moreover, the “inhibition of growth of v-Src/NIH 3T3 tumors” value with v-Src/NIH 3T3 tumors (1 mg/kg/day i.p.) is on record as 64%. Further, in the assay with B16-F10 melanoma, the “T50 (day until which 50% of mice survived)” value is 34 days, the “T50 increase versus vehicle” value came to 13 days, the “day by which all mice died” value was determined as 42 days and the “day by which none of the treated mice were dead” value stood at 23 days. Also, in the assay with phosphotyrosine STAT3 (10 μM, 4 hr, A549, MDA-MB-468, MDA-MB-231, Panc-1 and v-Src NIH 3T3 cells), the “levels of tyrosine phosphorylated STAT3 (Western blot)” value is “very effective at reducing the levels of tyrosine phosphorylated STAT3”. Besides, in the assay on phosphotyrosine STAT3 (10 μM, 4 hr, A549 and MDA-MB-468 cells), the “phosphotyrosine STAT3 levels after STAT3 immunoprecipitation” value is listed as “reduced phosphotyrosine STAT3 to barely detectable levels”. In addition, in the assay on phosphotyrosine STAT3 (A549 and MDA-MB-468 cells, 0-10 μM, 4 hr), the “levels of tyrosine phosphorylated STAT3, various concentrations” value is given as “reduction of the levels of tyrosine phosphorylated STAT3; also recorded: suppression of phospho-STAT3 levels in both cell lines”. Also, in the assay on phosphotyrosine STAT3 (A-549 cells, 0-10 μM), the “inhibition of phospho STAT3 levels (in words)” value was “inhibits both phospho STAT3 and phospho JAK2 levels”. In the assay on phosphotyrosine STAT3 (A-549 cells, Western blotting, read-out: IC50 for phospho-STAT3), the IC50 was found to be 200 nM. For the same compound, in the assay with phosphotyrosine STAT3 (read-out: IC50 as suppressor of the JAK/STAT3 tumor survival pathway), the IC50 was determined as 200 nM.
